This passage reports IC50 results from US20250206745A1, “PYRROLOPYRIDAZINE DERIVATIVES AND RELATED USES” (NodThera Limited, priority 2023, published 2025).

The structures appear in SMILES notation. Where a name gives a salt, the structure may show the parent alone.

The test system of assay [1] is IL-1β release upon NLRP3 activation in phorbol 12-myristate 13-acetate (PMA)-differentiated THP-1 cells. Description: THP-1 IC50 Determination Assay. The format is cell-based. The note with it: Homo sapiens, inhibition of IL-1β release, LPS, nigericin, ELISA. The procedure, abridged: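 THP-1 cells differentiated with 5 ng/mL PMA for ~40 h, plated 30,000/well and primed 2 h with 25 ng/mL LPS. Compounds added as 8-point 1:3 series (0.5% DMSO), then nigericin activation for 2 h at 37 °C; supernatant IL-1β measured by ELISA.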

The subject of assay [2] is IL-1β release upon NLRP3 activation in peripheral blood mononuclear cells (PBMC). Briefly: PBMC IC50 Determination Assay. The assay is classed as cell-based. The note with it: Homo sapiens; inhibition of IL-1β release; PBMC primed with LPS, stimulated with ATP or nigericin; ELISA or HTRF. The procedure, abridged:
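Human buffy-coat PBMC primed 3 h with LPS (1 μg/mL in Protocol B), given compound for 30 min, then stimulated 1 h with 5 mM ATP or 10 μM nigericin (Protocol A) or 5 mM ATP (Protocol B). IL-1β in supernatant measured by ELISA at 450 nm (A) or HTRF (B).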

As for `Cc1cc(Cl)cc(O)c1-c1cc2ccn(CC3CCOC3)c2nn1` (centres unmarked) [Compound 16, 5-Chloro-3-methyl-2-{7-[(oxolan-3-yl)methyl]-7H-pyrrolo[2,3-c]pyridazin-3-yl}phenol], the IC50 in assay [1] and in assay [2] was 100 to 300 nM throughout.
`Cc1cc(Cl)cc(O)c1-c1cc2ccn(CC3CN(C)C3)c2nn1` [Compound 28, 5-Chloro-3-methyl-2-{7-[(1-methylazetidin-3-yl)methyl]-7H-pyrrolo[2,3-c]pyridazin-3-yl}phenol hydrochloride]: the concentration for half-maximal inhibition (IC50) in assay [1] and in assay [2] was 300 to 1000 nM throughout.
Regarding `Cc1cc(Cl)cc(O)c1-c1cc2ncn(CC(=O)N(C)C)c2nn1` [Compound 77, 2-[3-(4-Chloro-2-hydroxy-6-methylphenyl)-7H-imidazo[4,5-c]pyridazin-7-yl]-N,N-dimethylacetamide], the IC50 lay in the range of 100 to 300 nM in assay [1] and 30 to 100 nM in assay [2].
For `Cc1cc(Cl)cc(O)c1-c1cc2ccn(CCN3CCCC(F)C3)c2nn1` (centres unmarked) [Compound 33, 5-Chloro-2-{7-[2-(3-fluoropiperidin-1-yl)ethyl]-7H-pyrrolo[2,3-c]pyridazin-3-yl}-3-methylphenol hydrochloride], in that order: 300 to 1000 nM and 30 to 100 nM.
`Cc1cc(C(F)(F)F)cc(O)c1-c1cc2ccn(CC3CCOC3)c2nn1` (centres unmarked) [Compound 3, 3-Methyl-2-{7-[(oxolan-3-yl)methyl]-7H-pyrrolo[2,3-c]pyridazin-3-yl}-5-(trifluoromethyl)phenol]: the IC50 in assay [1] and in assay [2] was 100 to 300 nM in each case.
Turning to `Cc1cc(Cl)cc(O)c1-c1cc2ccn(CC3CCCOC3)c2nn1` (centres unmarked) [Compound 42, 5-Chloro-3-methyl-2-{7-[(oxan-3-yl)methyl]-7H-pyrrolo[2,3-c]pyridazin-3-yl}phenol], the IC50 in assay [1] is 300 to 1000 nM; in assay [2] it was 100 to 300 nM.
With `Cc1cc(Cl)cc(O)c1-c1cc2ccn(CC3CN(C)CCO3)c2nn1` (centres unmarked) [Compound 34, 5-Chloro-3-methyl-2-{7-[(4-methylmorpholin-2-yl)methyl]-7H-pyrrolo[2,3-c]pyridazin-3-yl}phenol hydrochloride], the IC50 in assay [1] and in assay [2] was 300 to 1000 nM throughout.
Consider `Cc1cc(Cl)cc(O)c1-c1cc2ccn(CC3COCCN3C)c2nn1` (centres unmarked) [Compound 41, 5-Chloro-3-methyl-2-{7-[(4-methylmorpholin-3-yl)methyl]-7H-pyrrolo[2,3-c]pyridazin-3-yl}phenol hydrochloride], for which the IC50 lay within 300 to 1000 nM in assay [1] and 100 to 300 nM in assay [2].
For `Cc1cc(Cl)cc(O)c1-c1cc2ccn(CC3CCCN3C)c2nn1` (centres unmarked) [Compound 39, 5-Chloro-3-methyl-2-{7-[(1-methylpyrrolidin-2-yl)methyl]-7H-pyrrolo[2,3-c]pyridazin-3-yl}phenol hydrochloride], in that order: 300 to 1000 nM and 100 to 300 nM.
For `CC(=O)N1CCCCC1Cn1ccc2cc(-c3c(C)cc(Cl)cc3O)nnc21` (centres unmarked) [Compound 57, 1-(2-{[3-(4-Chloro-2-hydroxy-6-methylphenyl)-7H-pyrrolo[2,3-c]pyridazin-7-yl]methyl}piperidin-1-yl)ethan-1-one], in that order: 30 to 100 nM and 30 to 100 nM.
In the same order, the values of `Cc1cc(Cl)cc(O)c1-c1cc2ccn(CC3CCCO3)c2nn1` (centres unmarked) [Compound 43, 5-Chloro-3-methyl-2-{7-[(oxolan-2-yl)methyl]-7H-pyrrolo[2,3-c]pyridazin-3-yl}phenol] are 100 to 300 nM and 100 to 300 nM.
Regarding `CNC(=O)Cn1ccc2cc(-c3c(C)cc(Cl)cc3O)nnc21` [Compound 19, 2-[3-(4-Chloro-2-hydroxy-6-methylphenyl)-7H-pyrrolo[2,3-c]pyridazin-7-yl]-N-methylacetamide], the IC50 in assay [1] and in assay [2] was 300 to 1000 nM throughout.
Turning to `Cc1cc(C(F)(F)F)cc(O)c1-c1cc2ccn(C)c2nn1` [Compound 6, 3-Methyl-2-{7-methyl-7H-pyrrolo[2,3-c]pyridazin-3-yl}-5-(trifluoromethyl)phenol], the 50% inhibitory concentration (IC50) in assay [1] and in assay [2] was 300 to 1000 nM each time.
`Cc1cc(Cl)cc(O)c1-c1cc2ccn(CC3COC3)c2nn1` [Compound 48, 5-Chloro-3-methyl-2-{7-[(oxetan-3-yl)methyl]-7H-pyrrolo[2,3-c]pyridazin-3-yl}phenol]: the half-maximal inhibitory concentration (IC50) in assay [1] and in assay [2] was 100 to 300 nM throughout.
For the molecule `Cc1cc(Cl)cc(O)c1-c1cc2ncn(C[C@H]3CCN(C)C3)c2nn1` [Compound 74, 5-Chloro-3-methyl-2-(7-{[(3S)-1-methylpyrrolidin-3-yl]methyl}-7H-imidazo[4,5-c]pyridazin-3-yl)phenol hydrochloride], the IC50 in assay [1] and in assay [2] was 30 to 100 nM throughout.
As to `Cc1cc(Cl)cc(O)c1-c1cc2ccn(CC(=O)N3CCCCC3)c2nn1` [Compound 36, 2-[3-(4-Chloro-2-hydroxy-6-methylphenyl)-7H-pyrrolo[2,3-c]pyridazin-7-yl]-1-(piperidin-1-yl)ethan-1-one], the IC50 in assay [1] and in assay [2] was 300 to 1000 nM each time.
As to `CC(=O)N1CCC(Cn2cnc3cc(-c4c(C)cc(Cl)cc4O)nnc32)CC1` [Compound 72, 1-(4-{[3-(4-Chloro-2-hydroxy-6-methylphenyl)-7H-imidazo[4,5-c]pyridazin-7-yl]methyl}piperidin-1-yl)ethan-1-one], the IC50 in assay [1] and in assay [2] was 30 to 100 nM each time.
As to `COCCCn1ccc2cc(-c3c(C)cc(Cl)cc3O)nnc21` [Compound 23, 5-Chloro-2-[7-(3-methoxypropyl)-7H-pyrrolo[2,3-c]pyridazin-3-yl]-3-methylphenol], the IC50 in assay [1] and in assay [2] was 300 to 1000 nM throughout.
As to `Cc1cc(Cl)cc(O)c1-c1cc2ccn(CC3CCN(CC#N)CC3)c2nn1` [Compound 26, 2-(4-{[3-(4-Chloro-2-hydroxy-6-methylphenyl)-7H-pyrrolo[2,3-c]pyridazin-7-yl]methyl}piperidin-1-yl)acetonitrile], the IC50 in assay [1] and in assay [2] was 300 to 1000 nM throughout.
